According to patent publication US20150157615A1, “COMPOSITIONS AND METHOD FOR THE STIMULATION OF THE FEMALE AND MALE SEXUAL RESPONSE” (MULTICHEM S.A.S. DI GABRIELE SEGALLA, priority 2013, published 2015):

Columns and labels:
human skin = conditions: application on human skin; IJSPT Vol. 6 No. 2, 2011; cited from earlier work
female sexual response = tested on: female sexual response
Experimental: (§1) The application is preferably carried out 4-5 minutes before intercourse, but can also be repeated during intercourse itself whenever required.

male sexual response = tested on: male sexual response
Experimental: as §1

skin [1] = conditions: in the concentrations provided by the present invention
skin [2] = conditions: Norwegian Food Safety Authority risk profile / Council of Europe monograph 2008; cited from earlier work
[3] = women, alone, at least 0.5% up to 5% by weight, topical
[4] = men, alone, at least 0.5% up to 5% by weight, topical

SMILES: CC1CCC(C(C)C)C(O)C1 (stereo not drawn) [menthol]
- flow of blood in the part treated topically (human skin): reduces the flow of blood

SMILES: CC1CCC(C(C)C)C(OC(=O)c2cccnc2)C1 (stereo not drawn) [menthyl nicotinate, 5-Methyl-2-(isopropyl) cyclohexyl nicotinate]
- turgidity of the tissues / reddening or itching (female sexual response; in vivo): without however causing annoying reddening or itching
- latency period (period of time between orgasms) (female sexual response; [3]): Decrease
- number of orgasms (female sexual response; [3]): Multiple orgasms
- stimulation of the clitoris (female sexual response; [3]): Intense and prolonged stimulation
- time necessary for reaching orgasm (female sexual response; [3]): Decrease
- times of foreplay (female sexual response; [3]): Decrease
- duration of perception of cool tingling in the zone of application (female sexual response; women, depends on individual and concentration of active ingredient): up to one hour and more
- turgidity of the tissues / reddening or itching (male sexual response; in vivo): without however causing annoying reddening or itching
- flow of blood in the corpora cavernosa, turgidity and power of erection (male sexual response; [4]): A greater flow of blood
- retardant and reinvigorating effect (male sexual response; [4]): A retardant and at the same reinvigorating effect
- sexual stimulation (male sexual response; [4]): more intense
- voluntary control of ejaculation (male sexual response; [4]): Greater ability
- rubefacient and itching effect (skin [1]): does not exhibit any unpleasant rubefacient and itching effect

SMILES: COC(=O)c1cccnc1 [methyl nicotinate]
- concentration at which highly irritating to the skin in some cases (skin [2]): 0.00137-0.003%
